Tests used:
[1] = target: T1, dopamine-β-hydroxylase (DBH) (Bos taurus, UniProt P15101); test: Time-dependent DBH inhibitory activity in vitro (tyramine substrate, oxygen uptake by polarographic electrode); type: biochemical
T1 sequence (P15101 1-610): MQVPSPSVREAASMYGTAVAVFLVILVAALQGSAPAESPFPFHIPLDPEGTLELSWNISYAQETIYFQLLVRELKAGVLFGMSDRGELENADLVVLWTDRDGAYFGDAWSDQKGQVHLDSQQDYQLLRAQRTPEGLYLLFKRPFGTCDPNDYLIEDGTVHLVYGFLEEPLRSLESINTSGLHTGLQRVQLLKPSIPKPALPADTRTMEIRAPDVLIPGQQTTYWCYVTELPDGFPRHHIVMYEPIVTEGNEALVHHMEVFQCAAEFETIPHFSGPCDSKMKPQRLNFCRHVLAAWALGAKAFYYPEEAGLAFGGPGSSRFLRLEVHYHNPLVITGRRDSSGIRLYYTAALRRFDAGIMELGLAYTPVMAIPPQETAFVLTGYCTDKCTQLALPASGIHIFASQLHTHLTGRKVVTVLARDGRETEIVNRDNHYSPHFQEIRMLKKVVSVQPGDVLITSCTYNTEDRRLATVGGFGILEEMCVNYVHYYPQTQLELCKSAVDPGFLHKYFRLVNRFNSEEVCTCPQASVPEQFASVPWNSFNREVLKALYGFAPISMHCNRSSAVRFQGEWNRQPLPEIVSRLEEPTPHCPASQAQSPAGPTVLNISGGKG
Method: Since DBH is a major enzyme in the synthetic pathway of norepinephrine (NE), the presence of a DBH inhibitor would act to decrease the amount of NE produced, and thereby have an antihypertensive effect. The DBH inhibitory properties of the compounds of this invention can readily be determined by standard and well-known procedures. […] The test compound is added at the desired concentration, and the system is incubated. Aliquots are taken at different time intervals and DBH activity is measured using tyramine as the substrate. The reaction is followed by measuring oxygen uptake using a polarographic electrode and an oxygen monitor by the method of S. May, et al., J. Biol. Chem., 256, 2258 (1981).

[2] = system: spontaneously hypertensive rats; test: Antihypertensive activity in vivo: continuous recording of arterial blood pressure in conscious spontaneously hypertensive rats; conditions: ip
Method: For instance, test compounds are administered intraperitoneally (ip) to unanesthetized, spontaneously hypertensive rats and the arterial blood pressure is monitored continuously.

[3] = target: T1, dopamine-β-hydroxylase (DBH); test: DBH inhibition kinetics: conversion of tyramine to octopamine, HPLC with fluorometric quantitation; type: biochemical; conditions: read-out: inhibition constant (ki)
From the text: The DBH inhibitory properties of the compounds of this invention can also readily be determined […] by standard and well known procedures for assaying the conversion of tyramine to octopamine in the presence of DBH, such as the procedure set forth by Feilchenfeld, N. B., Richter, H. W. and Waddell, W. H. in "Time-Resolved Assay of Dopamine Beta Hydroxylase Activity Utilizing High-Pressure Liquid Chromatography", Analyt. Biochem., 122, 124-128 (1982). Determination of the kinetics of DBH inhibition is exemplified by a procedure where the enzyme-assisted conversion of tyramine to octopamine is determined by incubating varying concentrations of test compound with constant concentrations of substrate, enzyme (DBH), molecular oxygen, an electron donor such as ascorbate and the necessary cofactors for the enzyme at optimal temperature and pH. After incubation, the product is separated out by high-performance liquid chromatography and quantitated fluorometrically, from which an inhibition constant (ki) can readily be calculated.

## NCC=C1SCCS1 [compound 1]
[1]
  activity in the time-dependent DBH assay: most active compound of the compounds tested

## NC/C=C1/CCCS1 [Example 6]
[2]
  in vivo antihypertensive activity: active as an in vivo antihypertensive agent

## 1,3-Dithiolane-2-ethanamine [Example 2]
[3]
  Ki: 11 µM

Source: patent US4894389A, “Novel aminoalkyl-substituted heterocyclic sulfur compounds” (Merrell Dow Pharmaceuticals Inc., priority 1987, dated 1990)
